This is an account of results in US10953027B2, “Active agents and methods of their use for the treatment of metabolic disorders and nonalcoholic fatty liver disease” (Flagship Pioneering Innovations V, Inc., priority 2018, dated 2021).

Format in all cases: in vitro ADME
Data set [1] can be described thus: Assay 3. Fecal Incubation Stability. As to conditions: 1 or 10 μM, human fecal slurry, anaerobic. The method, then:
Assay 3. Fecal Incubation Stability. This assay was used to assess the stability of an acylated active agent in a large intestine. All experiments were performed in an anaerobic chamber containing 90% nitrogen, 5% hydrogen and 5% carbon dioxide. Human fecal matter in a slurry (15% WV) is added to 96 well plates containing YCFA media or other suitable media (1.6 mL). Compounds were added to each individual well to reach a final analyte concentration of 1 or 10 μM, and the material was mixed by pipetting. At set time points a sample was removed, quenched with acetonitrile, and analyzed by LC/MS.

Data set [2] can be described thus: Assay 2. Stability in Simulated Intestinal Fluid (SIF). As to conditions: 1 μM, 37° C., SIF pH 6.7 with pancreatin. The essentials:
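Degradation rate measured by LC/MS after acetonitrile quench of timed aliquots, starting at T0. Test compound 1 μM in simulated intestinal fluid (pH 6.7 phosphate buffer, FaSSIF powder, pancreatin), shaken at 37 °C.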

Data set [3] is described as follows: Assay 1. Stability in Simulated Gastric Fluid (SGF). As to conditions: 1 μM, 37° C., SGF pH 1.6 with pepsin. The essentials:
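Simulated gastric fluid, prepared fresh as NaCl buffer at pH 1.6 with 0.1 mg/mL pepsin and FaSSIF powder, received test compound to 1 μM final and was held at 37 °C. LC/MS of acetonitrile-quenched samples, taken immediately and then periodically, gave degradation rates.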

The structures appear in SMILES notation.

In the case of `CCC(=O)O[C@@H]1[C@H](OC(=O)CC)COC(O)[C@@H]1OC(=O)CC` (stereo partly drawn) [Compound 137, (3R,4R,5R)-2-hydroxy-4,5-bis(propanoyloxy)oxan-3-yl Propanoate], the “Assay 3 (% Remaining at 24 h)” value in data set [1] is listed as “B (B: 25-75% of the tested compound remaining)”. Moreover, the “Assay 2 (SIF) (% @ Remaining 4 hours)” value in data set [2] is reported as “B (B: 25-75% of the tested compound remaining)”. Moreover, in data set [3], the “Assay 1 (SGF) (% Remaining @ 1 hours)” value is given as “C (C: >75% of the tested compound remaining)”.
Turning to `CCC(=O)O[C@@H]1O[C@@H](C)[C@H](OC(=O)CC)[C@@H](OC(=O)CC)[C@H]1OC(=O)CC` [Compound 111, (2S,3R,4R,5S,6S)-6-methyl-3,4,5-tris(propanoyloxy)oxan-2-yl propanoate], the “Assay 3 (% Remaining at 24 h)” value in data set [1] was “A (A: <25% of the tested compound remaining)”. In addition, the “Assay 2 (SIF) (% @ Remaining 4 hours)” value in data set [2] is listed as “A (A: <25% of the tested compound remaining)”. The “Assay 1 (SGF) (% Remaining @ 1 hours)” value in data set [3] was “B (B: 25-75% of the tested compound remaining)”.
Turning to `CCC(=O)O[C@H]1[C@H](OC(=O)CC)[C@@H](OC(=O)CCc2c[nH]c3ccccc23)O[C@@H](C)[C@H]1OC(=O)CC` [Compound 110, (2R,3S,4R,5R,6S)-6-methyl-3,4,5-tris(propanoyloxy)oxan-2-yl 3-(1H-indol-3-yl)propanoate], in data set [1], the “Assay 3 (% Remaining at 24 h)” value is on record as “A (A: <25% of the tested compound remaining)”. For the same compound, the “Assay 2 (SIF) (% @ Remaining 4 hours)” value in data set [2] is on record as “C (C: >75% of the tested compound remaining)”. Also, the “Assay 1 (SGF) (% Remaining @ 1 hours)” value in data set [3] is on record as “C (C: >75% of the tested compound remaining)”.
For the compound `CCC(=O)Oc1ccc(-c2cc(=O)c3c(OC(=O)CC)cc(OC(=O)CC)cc3o2)cc1` [Compound 203, 4-oxo-7-(propanoyloxy)-2-[4-(propanoyloxy)phenyl]-4H-chromen-5-yl Propanoate], the “Assay 3 (% Remaining at 24 h)” value in data set [1] is recorded as “B (B: 25-75% of the tested compound remaining)”. Besides, in data set [2], the “Assay 2 (SIF) (% @ Remaining 4 hours)” value is on record as “A (A: <25% of the tested compound remaining)”. Moreover, in data set [3], the “Assay 1 (SGF) (% Remaining @ 1 hours)” value is given as “C (C: >75% of the tested compound remaining)”.
On to `CCCC(=O)O[C@@H]1[C@@H](OC(=O)CCC)[C@H](OC(=O)CCc2c[nH]c3ccccc23)OC[C@H]1OC(=O)CCC` [Compound 129, (2S,3R,4S,5R)-4,5-bis(butanoyloxy)-2-{[3-(1H-indol-3-yl)propanoyl]oxy}oxan-3-yl Butanoate], for which the “Assay 3 (% Remaining at 24 h)” value in data set [1] is reported as “A (A: <25% of the tested compound remaining)”. Further, the “Assay 1 (SGF) (% Remaining @ 1 hours)” value in data set [3] is recorded as “B (B: 25-75% of the tested compound remaining)”.
For `CCC(=O)O[C@H]1[C@H](OC)OC[C@@H](OC(=O)CC)[C@H]1OC(=O)CC` [Compound 84, (2R,3R,4R,5R)-2-methoxy-3,5-bis(propanoyloxy)oxan-4-yl Propanoate], the “Assay 3 (% Remaining at 24 h)” value in data set [1] was “B (B: 25-75% of the tested compound remaining)”. Besides, in data set [2], the “Assay 2 (SIF) (% @ Remaining 4 hours)” value is “C (C: >75% of the tested compound remaining)”. In addition, the “Assay 1 (SGF) (% Remaining @ 1 hours)” value in data set [3] is on record as “C (C: >75% of the tested compound remaining)”.
Consider `CCC(=O)OC[C@H]1O[C@H](OC)[C@H](OC(=O)CC)[C@@H](OC(=O)CC)[C@@H]1OC(=O)CC` [Compound 88, [(2R,3R,4S,5R,6S)-6-methoxy-3,4,5-tris(propanoyloxy)oxan-2-yl]methyl Propanoate], for which the “Assay 3 (% Remaining at 24 h)” value in data set [1] is “A (A: <25% of the tested compound remaining)”. Besides, in data set [2], the “Assay 2 (SIF) (% @ Remaining 4 hours)” value is recorded as “A (A: <25% of the tested compound remaining)”. Further, the “Assay 1 (SGF) (% Remaining @ 1 hours)” value in data set [3] was “C (C: >75% of the tested compound remaining)”.
With `CCC(=O)O[C@@H]1[C@@H](OC(=O)CC)[C@H](OC(=O)/C=C/c2c[nH]c3ccccc23)OC[C@@H]1OC(=O)CC` [Compound 132, (2S,3R,4S,5S)-3,4,5-tris(propanoyloxy)oxan-2-yl (2E)-3-(1H-indol-3-yl)prop-2-enoate], the “Assay 3 (% Remaining at 24 h)” value in data set [1] is on record as “A (A: <25% of the tested compound remaining)”. Also, the “Assay 1 (SGF) (% Remaining @ 1 hours)” value in data set [3] is recorded as “B (B: 25-75% of the tested compound remaining)”.
With `O=C(CCc1c[nH]c2ccccc12)O[C@@H]1O[C@H](C(=O)O)[C@@H](OC(=O)CCc2c[nH]c3ccccc23)[C@H](OC(=O)CCc2c[nH]c3ccccc23)[C@H]1OC(=O)CCc1c[nH]c2ccccc12` [Compound 82, (2S,3S,4S,5R,6S)-3,4,5,6-tetrakis({[3-(1H-indol-3-yl)propanoyl]oxy})oxane-2-carboxylic Acid], the “Assay 3 (% Remaining at 24 h)” value in data set [1] is reported as “A (A: <25% of the tested compound remaining)”. In addition, the “Assay 2 (SIF) (% @ Remaining 4 hours)” value in data set [2] is recorded as “A (A: <25% of the tested compound remaining)”.
With `CCC(=O)O[C@H]1[C@H](OC(=O)CC)[C@H](OC(=O)CCc2c[nH]c3ccccc23)O[C@@H](C)[C@H]1OC(=O)CC` [Compound 155, (2S,3S,4R,5R,6S)-6-methyl-3,4,5-tris(propanoyloxy)oxan-2-yl 3-(1H-indol-3-yl)propanoate], the “Assay 3 (% Remaining at 24 h)” value in data set [1] was “A (A: <25% of the tested compound remaining)”. In data set [2], the “Assay 2 (SIF) (% @ Remaining 4 hours)” value is on record as “C (C: >75% of the tested compound remaining)”.
The like results for `CCCC(=O)OC[C@H]1O[C@H](OC)[C@H](OC(=O)CCC)[C@@H](OC(=O)CCC)[C@H]1OC(=O)CCC` [Compound 89, [(2R,3S,4S,5R,6S)-3,4,5-tris(butanoyloxy)-6-methoxyoxan-2-yl]methyl Butanoate] were, in that order, “A (A: <25% of the tested compound remaining)” and “A (A: <25% of the tested compound remaining)”.
For the compound `CCCC(=O)OC[C@H]1O[C@@H](OC)[C@H](OC(=O)CCC)[C@@H](OC(=O)CCC)[C@H]1OC(=O)CCC` [Compound 93, [(2R,3S,4S,5R,6R)-3,4,5-tris(butanoyloxy)-6-methoxyoxan-2-yl]methyl Butanoate], the “Assay 3 (% Remaining at 24 h)” value in data set [1] is on record as “A (A: <25% of the tested compound remaining)”. Besides, the “Assay 2 (SIF) (% @ Remaining 4 hours)” value in data set [2] is listed as “A (A: <25% of the tested compound remaining)”.
For `CCCC(=O)O[C@H]1[C@H](OC(=O)CCC)[C@@H](OC(=O)CCc2c[nH]c3ccccc23)O[C@@H](C)[C@H]1OC(=O)CCC` [Compound 120, (2R,3S,4R,5R,6S)-4,5-bis(butanoyloxy)-2-{[3-(1H-indol-3-yl)propanoyl]oxy}-6-methyloxan-3-yl Butanoate], the “Assay 3 (% Remaining at 24 h)” value in data set [1] is recorded as “A (A: <25% of the tested compound remaining)”. The “Assay 1 (SGF) (% Remaining @ 1 hours)” value in data set [3] is “B (B: 25-75% of the tested compound remaining)”.
The like results for `CCCC(=O)O[C@@H]1[C@@H](OC(=O)CCC)[C@H](C)O[C@H](OC(=O)CCc2c[nH]c3ccccc23)[C@@H]1OC(=O)CCC` [Compound 119, (2R,3R,4R,5S,6S)-4,5-bis(butanoyloxy)-2-{[3-(1H-indol-3-yl)propanoyl]oxy}-6-methyloxan-3-yl Butanoate] were, in that order, “A (A: <25% of the tested compound remaining)” and “B (B: 25-75% of the tested compound remaining)”.
The like results for `CCC(=O)OC[C@H]1O[C@H](OC(=O)/C=C/c2c[nH]c3ccccc23)[C@H](OC(=O)CC)[C@@H](OC(=O)CC)[C@@H]1OC(=O)CC` [Compound 131, (2R,3R,4S,5R,6R)-3,4,5-tris(propanoyloxy)-6-[(propanoyloxy)methyl]oxan-2-yl (2E)-3-(1H-indol-3-yl)prop-2-enoate] were, in that order, “A (A: <25% of the tested compound remaining)” and “B (B: 25-75% of the tested compound remaining)”.
